Test results from ChEMBL document CHEMBL5584341, “Discovery of Potent, Specific, and Orally Available NLRP3 Inflammasome Inhibitors Based on Pyridazine Scaffolds for the Treatment of Septic Shock and Peritonitis” (J Med Chem, 2024).
Calls of active or inactive are those of the source. The calls are words filed in the database; no cut-off is given here.

Experiments:
LX-2 = test: Cytotoxicity against human LX-2 cells at 20 uM incubated for 72 hrs by MTT assay; format: toxicity, cell-based; settings: lx-2, 72 h
AML12 = test: Cytotoxicity against mouse AML12 cells at 5 uM incubated for 72 hrs by MTT assay; format: toxicity, cell-based; settings: aml12, 72 h
[1] = Inhibition of IL-1beta release in PMA-differentiated/ LPS and nigericin stimulated human THP-1 cells at 0.5 uM pretreated with LPS for 3 hrs followed by incubation with compound for 40 mins and later stimulated with nigericin for 40 mins by ELISA; format: functional; settings: THP-1, 1.333 h, time 80 min
[2] = Cmax in BALB/c mouse at 5 mg/kg, iv measured upto 24 hrs by LC-MS/MS analysis; format: ADME, organism-based; settings: in vivo
THP-1 = test: Inhibition of nigericin induced ASC oligomerization in PMA differentiated human THP-1 cells at 5 to 80 nM pretreated compound for 40 mins followed by nigericin stimulation by immunofluorescence analysis; format: functional, cell-based; settings: dose 5-80 nM
[3] = target: NACHT, LRR and PYD domains-containing protein 3 (Mus musculus, UniProt Q8R4B8); test: Inhibition of NLRP3 inflammasome activation in LPS/nigericin stimulated mouse BMDMs assessed as reduction in IL-1beta release pretreated with LPS for 3 hrs followed by compound addition for 40 mins prior to nigericin stimulation for 40 mins by ELISA; format: cell-based, BMDM
Sequence of NACHT, LRR and PYD domains-containing protein 3 (Q8R4B8 whole entry, the tested form may be a part): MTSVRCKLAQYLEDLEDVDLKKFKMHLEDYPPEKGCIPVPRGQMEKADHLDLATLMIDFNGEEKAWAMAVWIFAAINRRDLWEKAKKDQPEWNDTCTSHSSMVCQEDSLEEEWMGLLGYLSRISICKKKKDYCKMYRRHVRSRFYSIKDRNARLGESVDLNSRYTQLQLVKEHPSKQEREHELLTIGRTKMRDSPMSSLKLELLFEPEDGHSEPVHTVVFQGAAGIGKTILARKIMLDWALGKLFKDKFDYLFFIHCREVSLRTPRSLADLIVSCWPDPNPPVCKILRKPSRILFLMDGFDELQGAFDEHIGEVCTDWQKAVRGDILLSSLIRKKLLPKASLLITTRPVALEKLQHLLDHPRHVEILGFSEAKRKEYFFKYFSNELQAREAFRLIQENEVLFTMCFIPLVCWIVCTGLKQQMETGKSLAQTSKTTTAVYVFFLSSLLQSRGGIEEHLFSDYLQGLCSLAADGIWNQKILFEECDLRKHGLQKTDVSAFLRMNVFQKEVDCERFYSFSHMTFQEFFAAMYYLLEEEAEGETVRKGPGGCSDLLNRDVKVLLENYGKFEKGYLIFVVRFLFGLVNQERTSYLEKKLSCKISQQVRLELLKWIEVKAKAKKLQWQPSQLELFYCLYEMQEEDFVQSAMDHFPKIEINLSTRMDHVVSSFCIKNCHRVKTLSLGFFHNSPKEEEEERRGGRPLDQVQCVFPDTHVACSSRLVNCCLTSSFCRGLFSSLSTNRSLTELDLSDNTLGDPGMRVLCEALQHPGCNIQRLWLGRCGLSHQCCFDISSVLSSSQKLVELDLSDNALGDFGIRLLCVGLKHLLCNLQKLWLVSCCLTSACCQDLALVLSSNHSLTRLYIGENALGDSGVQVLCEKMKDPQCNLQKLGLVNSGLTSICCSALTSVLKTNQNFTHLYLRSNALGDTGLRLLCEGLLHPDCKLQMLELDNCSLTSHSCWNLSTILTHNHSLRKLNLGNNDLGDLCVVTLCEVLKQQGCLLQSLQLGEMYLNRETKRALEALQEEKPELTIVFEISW

Compound: OCCN1CCC[C@@H](Nc2nnc(-c3ccc4occc4c3O)c3c2C2CCC3CC2)C1
- Activity (LX-2): Toxic
- Activity (AML12): Non-Toxic
- inhibition at 0.5 µM [1]: 98.9%
- Cmax [2]: 3770 ng/mL
- inhibition (THP-1): Active
- IC50 [3]: 0.0153 µM
